Assay results from patent US5976813A, “Continuous format high throughput screening” (priority 1997, dated 1999).

Legend:
[1] = tested on: VanA; details: statement on known inhibitor used as positive control; cited from earlier work
[2] = biological target: S. Cerevisiae Elongation Factor 3 (Saccharomyces cerevisiae, UniProt P16521); experiment: Two-step gel assay for phosphate generated by EF-3 ATPase activity stimulated by ribosome binding; type: biochemical; details: inhibitor amounts 5 picomole to 200 picomole; FIG. 7
Chain of S. Cerevisiae Elongation Factor 3 (P16521 whole entry): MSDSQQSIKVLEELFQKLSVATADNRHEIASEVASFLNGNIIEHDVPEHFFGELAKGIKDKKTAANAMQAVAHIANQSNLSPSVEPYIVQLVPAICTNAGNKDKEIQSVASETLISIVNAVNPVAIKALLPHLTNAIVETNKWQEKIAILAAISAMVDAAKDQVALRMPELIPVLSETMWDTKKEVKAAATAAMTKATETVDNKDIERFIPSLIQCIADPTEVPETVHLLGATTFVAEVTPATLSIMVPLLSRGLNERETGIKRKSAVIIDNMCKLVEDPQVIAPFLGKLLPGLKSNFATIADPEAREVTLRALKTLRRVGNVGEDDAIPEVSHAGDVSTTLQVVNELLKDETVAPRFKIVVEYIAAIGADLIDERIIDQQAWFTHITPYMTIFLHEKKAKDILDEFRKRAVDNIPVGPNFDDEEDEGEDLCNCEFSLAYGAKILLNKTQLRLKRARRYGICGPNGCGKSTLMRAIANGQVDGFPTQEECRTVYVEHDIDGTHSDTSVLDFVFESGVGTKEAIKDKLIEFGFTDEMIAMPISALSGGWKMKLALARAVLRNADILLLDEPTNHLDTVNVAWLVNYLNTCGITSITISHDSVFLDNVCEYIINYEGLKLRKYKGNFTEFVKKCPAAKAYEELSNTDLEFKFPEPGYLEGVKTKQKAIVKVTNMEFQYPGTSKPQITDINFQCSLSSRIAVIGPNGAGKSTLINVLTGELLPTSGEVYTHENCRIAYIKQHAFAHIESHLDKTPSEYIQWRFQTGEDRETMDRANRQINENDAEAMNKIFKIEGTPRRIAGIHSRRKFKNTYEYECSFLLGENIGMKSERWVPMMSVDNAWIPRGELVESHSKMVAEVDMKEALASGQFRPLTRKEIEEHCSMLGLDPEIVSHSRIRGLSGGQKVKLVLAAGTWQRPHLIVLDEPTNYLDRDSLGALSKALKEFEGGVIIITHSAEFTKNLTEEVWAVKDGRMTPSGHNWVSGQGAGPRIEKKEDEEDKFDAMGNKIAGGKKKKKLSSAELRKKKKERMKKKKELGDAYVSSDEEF
Protocol: A two-step gel assay for detecting phosphate generated by S. Cerevisiae Elongation Factor 3 ATPase activity stimulated by Ribosomes binding
When fungal elongation factor 3 (EF-3) interacts with ribosomes, […] is stimulated. The inventors have applied CF-HTS to the assay for this activity.
An enzyme gel containing EF-3 (a highly temperature sensitive enzyme) and yeast ribosomes in EF-3 assay buffer was prepared. A substrate gel containing 1 mM ATP in assay buffer was also prepared. Both gels contained 2% dimethyl sulfoxide in low melting agarose (Gibco BRL), and were prepared at 37° C. and allowed to set for 30 minutes at 4° C. Serial dilutions of Poly-L-lysine, an inhibitor of EF-3 used as a control sample, was spotted onto PVDC film and dried (sample matrix). The assay was then conducted as in Example 1 by pre-incubating the enzyme gel with the inhibitors on the sample matrix. Then the enzyme gel was placed in contact with the substrate gel for 20 minutes. As in Example 1, the enzyme and substrate gels were stained with Malachite green/Ammonium Molybdate color development cocktail. Then the enzyme gel was imaged with a CCD camera. The inhibitor spots appear as clearer zones in a green background. FIG. 7 illustrates color development on the gel where inhibitor amounts varied from 5 picomole to 200 picomole.

[3] = tested on: IL-8a receptor; experiment: Gel/filter CF-HTS control: ^125 I-IL-8 binding to HEK cells expressing the IL-8a receptor; details: ^125 I-IL-8 in agarose gel diffusing through cell matrix; FIG. 12
Protocol: HEK cells (ATCC, Bethesda, M.D.) expressing the IL-8a receptor were plated on a 75 mm diameter transwell membrane filter (Corning Costar Corp, Cambridge, Mass.) at a density of about 20 million cells per plate. They were allowed to attach to the membrane filter overnight in buffer (RPMI from Life Technologies, Grand Island, N.Y.) containing 10 mM Hepes (Sigma, St Louis, Mo.) at pH 7.2 and 37° C. After the cells were attached to the filter, the media was removed, and the cells were washed with fresh buffer to remove any unattached cells. The filters were inverted cell-side down and placed at an angle to allow excess media to drain, and then dried for 20 minutes. This was timed so that the cell matrix could be immediately used in the assay described below.
The ligand matrix was prepared by soaking ^125 I labeled IL-8 (Amersham, Inc., Arlington Heights, Ill.) into an agarose gel made by mixing 0.1 g agarose with 10 ml buffer, heating until molten, and then casting in a 8×7×0.075 cm gel apparatus. The gels were soaked overnight at RT while slowly mixing on a rotating platform (New Brunswick Scientific Co., Inc, Edison, N.J.). After soaking, the gels were dried for 20 minutes at RT just prior to use. This was timed so that the gel could be immediately used in the assay. […]

N[C@@H]1CONC1=O [D-cycloserine]
inhibition of VanA [1]: inhibits VanA in a dose-dependent manner

Poly-L-lysine
inhibition of EF-3 in gel assay (clearer zones in green background) [2]: dose dependent signal of the inhibitor

^125 I-IL-8: ^125 I labeled IL-8 (Amersham)
binding to HEK cells expressing the IL-8a receptor [3]: dose response
